SMILES strings stand for the structures.

Test [1] has as its system murine A20 lymphoma cells. The test can be described thus: Subcutaneous xenograft model of murine A20 lymphoma. The format is in vivo, female BALB/c mice. The settings on record: A20 s.c. Here is the method:
• (1) APG-1387: provided by Jiangsu Ascentage Pharmaceutical Development Co., Ltd. The batch number is R12JA076140-A2 and PAPG-1387-DP-201305A. Preserved at 4° C., away from the light and sealed. APG-1387 was administered intravenously (i.v.) or intraperitoneally (i.p.) or at a dosage of 10 mL/kg. APG-1387 was dissolved in 5% castor oil/10% PEG400/85% normal saline. • (2) Anti-PD-1 antibody: purchased from BioXcell. The article number is BE0146 and BE0273. Preserved at 4° C. and sealed. The anti-PD-1 antibody was administered intraperitoneally at a concentration of 100 μg per mice or 200 μg per mice. • (3) Isotype control (anti-IgG): purchased from BioXcell, the product number is BE0089. Preserved at 4° C. and sealed. […]
The mice were injected subcutaneously with 0.5-10×10^6 cells or in the ovary with 6×10^6 cells in situ to build the tumor xenograft model. […] For the orthotopic model, tumor growth was measured by examining in vivo fluorescence images 10 days after inoculation. […] Body weight and tumor size were measured twice per week during the experiment. […]
The calculation of tumor related parameters is the same as set forth in Example 1. Using the fluorescence imaging technique, the strength of the fluorescent signal can represent the growth and metastasis of tumors in vivo. […]

The test system of test [2] is CT26 colorectal cancer. The test can be described thus: Combination therapy in CT26 mouse colorectal cancer model. The format is in vivo. The settings on record: for T/C (%) value on day 18 after administration: APG-1387 0.2 mg/kg i.v. once daily, docetaxel 8 mg/kg i.p. once weekly, anti-PD-1 200 μg/mouse i.p. twice weekly. As to the method: Cell inoculation method was used to establish a […] tumor-immunized normal mouse subcutaneous homograft tumor model: tumor cells in logarithmic growth phase were collected, counted, and then resuspended in 1×PBS. The concentration of the cell suspension was adjusted to 2.5-5×10^7/mL. Tumor cells, 5-10×10^6/0.2 mL/mouse, were inoculated subcutaneously in the right back of the immunized normal mouse with a 1 mL syringe ([…]). All animal experimental operations were strictly in accordance with standards for use and management of laboratory animals by Gima Gene Co., Ltd and Suzhou Yasheng Pharmaceutical Co., Ltd. Relevant parameters were calculated with reference to China's NMPA “Guidelines for Non-clinical Research Techniques of Cytotoxic Antitumor Drugs”.
Animal weight and tumor size were measured twice a week during the experiment. Animals were observed daily for status and the occurrence of death. Routine monitoring included the effects of tumor growth and treatment on the normal behaviors of animals, specifically including the activity, feeding and drinking, weight gain or loss, eyes, clothing hair, as well as other abnormalities of the laboratory animals. The deaths and clinical symptoms observed during the experiment were recorded in the original data. The whole process of administration, measurement of mouse weight and tumor volume was carried out in an ultra-clean bench. According to requirements of the experimental program, plasma and tumor tissue were collected, weighed and photographed for record after the end of last administration. Plasma and tumor samples were frozen at −80° C. for later use.
Tumor volume (TV) was calculated as TV=a×b^2/2, wherein a and b represented the length and width of tumor measurement, respectively.
Relative tumor volume (RTV) was calculated as RTV=Vt/V1, wherein V1 was the tumor volume at the time of grouping administration, and Vt was the tumor volume measured on day t after administration.
The evaluation index of anti-tumor activity was relative tumor proliferation rate T/C (%), and was calculated as: relative tumor proliferation rate T/C (%)=(TRTV/CRTV)×100%, wherein TRTV was RTV in treatment group, and CRTV was RTV in vehicle control group.
Tumor remission rate (%) was the number of SD (stable disease), PR (partial regression) and CR (complete regression) in tumor-bearing mice after treatment divided by the total number of mice in that group×100%. CR refers to the complete regression of the tumor, which means the tumor is inaccessible after treatment. PR refers to the partial regression of the tumor, which means tumor volume becomes smaller than before treatment. SD refers to stable tumor progression, which means tumor volume is the same as before treatment. Change of body weight (%)=(measurement of body weight−body weight when grouping)/body weight when grouping×100%.
Efficacy evaluation criteria: according to China's NMPA “Guidelines for Non-clinical Research Techniques of Cytotoxic Antitumor Drugs” (November 2006), T/C (%) value 40% and p<0.05 by statistical analysis were considered as efficacious. If the weight loss of mice exceeded 20%, or the drug-related death percentage exceeded 20%, the drug dose was considered to be severely toxic.
According to Clarke R., Issues in experimental design and endpoint analysis in the study of experimental cytotoxic agents in vivo in breast cancer and other models [J].
A tumor model of CT26 colorectal cancer mouse was established, and the combined anti-tumor effect of APG-1387 with anti-PD-1 antibody and docetaxel was evaluated on this model. The administration regimen was as follows:
APG-1387 monotherapy group: 0.2 mg/kg, intravenous injection, once daily for a total of 17 days;
Docetaxel monotherapy group: 8 mg/kg, intraperitoneal injection, once weekly for a total of 17 days;
Anti-PD-1 antibody monotherapy group: 200 μg/mouse, intraperitoneal injection, twice weekly for a total of 2.5 weeks (i.e., 17 days); […]

On to `CC(=O)O[C@@]12CO[C@@H]1C[C@H](O)[C@@]1(C)C(=O)[C@H](O)C3=C(C)[C@@H](OC(=O)[C@H](O)[C@@H](NC(=O)OC(C)(C)C)c4ccccc4)C[C@@](O)([C@@H](OC(=O)c4ccccc4)[C@H]21)C3(C)C` [Docetaxel, docetaxel], for which, in test [1], the “anti-tumor effect on the 24th day after administration” value is given as “not significant”. The “T/C (%) value on day 18 after administration” value in test [2] and in test [2] (listed as docetaxel) was 66% throughout. The “Tumor remission rate on day 18 after administration (%)” value in test [2] (day 18) turned out to be 25%. The “Tumor remission rate on day 18 after administration: animals with SD/PR/CR per animals in group” value in test [2] (day 18) is 1/4 SD; in test [2] (day 18, listed as docetaxel), “¼”.
